Converted amounts (≈) assume the structure as drawn. “And” between values parts separate entries of the source, which are not always exact repeats. Equal values may be shown once. Read-outs that look alike come from different tables or passages of the source.
Columns and labels:
S. pneumoniae = experiment: Summary of in vitro activity (MIC)
S. aureus ATCC 25923 = experiment: MIC, agar incorporation method; conditions: agar incorporation
[1] = Changes in MIC under different conditions: broth MIC; format: cell-based; conditions: strain not given
MRSA 33 = experiment: MIC, agar incorporation method
G +ve bacteria = experiment: Summary of in vitro activity (MIC)
MRSA 562 [2] = experiment: MIC, agar incorporation method
MRSA 562 [3] = experiment: In vivo activity against MRSA 562 (ED50); design: species or system Methicillin Resistant Staphylococcus aureus; conditions: MRSA 562 infection
Strep. pyog. ATCC 19615 = experiment: MIC, agar incorporation method
Strep. pne. ATCC 6303 = experiment: MIC, agar incorporation method
MRSA 15187 = experiment: MIC, agar incorporation method
VRE 6A (Ent. faecium 6A) = experiment: MIC, agar incorporation method
Ent. faecalis ATCC 29212 = experiment: MIC, agar incorporation method
[4] = Changes in MIC under different conditions: agar MIC; format: cell-based; conditions: strain not given
S. aureus = experiment: Summary of in vitro activity (MIC)
S. pneum AB 34 = experiment: MIC, agar incorporation method
E. faecalis = experiment: Summary of in vitro activity (MIC)
[5] = tested on: Prevotella melaninogenica; experiment: Agar dilution MIC, anaerobes; format: cell-based
Fusobacterium necrogenes = experiment: Agar dilution MIC, anaerobes; format: cell-based
[6] = tested on: Porphyromonas asaccharolytica; experiment: Agar dilution MIC, anaerobes; format: cell-based
Eubacterium leutum = experiment: Agar dilution MIC, anaerobes; format: cell-based
Clostridium perfringens = experiment: microbe, parasite or virus in culture; format: cell-based
Fusobacterium nucleatum = experiment: Agar dilution MIC, anaerobes; format: cell-based; conditions: Fusobacterium nucleatum, read-out: MIC Fusobacterium nucleatum
[7] = tested on: Peptostreptococcus micros; experiment: Agar dilution MIC, anaerobes; format: cell-based
Clostridium camis = experiment: Agar dilution MIC, anaerobes; format: cell-based
Fusobacterium varium = experiment: Agar dilution MIC, anaerobes; format: cell-based
[8] = tested on: Peptostreptococcus prevotii; experiment: Agar dilution MIC, anaerobes; format: cell-based
[9] = tested on: Peptostreptococcus magnum; experiment: Agar dilution MIC, anaerobes; format: cell-based; conditions: for MIC Peptostreptococcus magnum: single isolates, anaerobic agar dilution
Prevotella intermedia = experiment: Agar dilution MIC, anaerobes; format: cell-based
Clostridium difficile = experiment: Agar dilution MIC, anaerobes; format: cell-based; conditions: for MIC Clostridium difficile: single isolates, anaerobic agar dilution
Fusobacterium montiferum = experiment: Agar dilution MIC, anaerobes; format: cell-based
Porphyromonas gingivalis = experiment: Agar dilution MIC, anaerobes; format: cell-based
Bacteroides fragilis = experiment: Agar dilution MIC, anaerobes; format: cell-based
[10] = tested on: Peptostreptococcus tetradius; experiment: Agar dilution MIC, anaerobes; format: cell-based
MRSE 879 = experiment: Broth MIC, MRSE 879; format: cell-based
Prevotella bivia = experiment: Agar dilution MIC, anaerobes; format: cell-based
anaerobic bacteria = experiment: Agar dilution method for anaerobic bacteria, summary; format: cell-based
P. acnes = experiment: Agar dilution MIC, anaerobes; format: cell-based; conditions: for MIC P. acnes: single isolates, anaerobic agar dilution
[11] = tested on: Prevotella (Bacteroides) disiens; experiment: Agar dilution MIC, anaerobes; format: cell-based
[12] = tested on: MRSE 879 adherent bacteria; experiment: Sintered glass adherent bacteria model; conditions: MRSE 879, sintered glass adherent bacteria model
[13] = single isolates, anaerobic agar dilution, listed as Quin/dal
[14] = single isolate, anaerobic agar dilution
[15] = single isolates, anaerobic agar dilution
[16] = anaerobes, Wilkins Chalgren agar, 48 hour

CC(=O)NC[C@H]1CN(c2ccc(N3CCC(N(C)C(=O)c4ccc([N+](=O)[O-])o4)CC3)c(F)c2)C(=O)O1 [Compound No. 44]
Geometric Mean of in vitro activity (MIC) (S. pneumoniae; S. pneumoniae): 0.96 µg/mL | MIC50 (S. pneumoniae; S. pneumoniae, Number 19): 1 µg/mL (≈ 1.99 µM) | MIC90 (S. pneumoniae; S. pneumoniae, Number 19): 2 µg/mL (≈ 3.97 µM) | MIC S. aureus 25923 (S. aureus ATCC 25923): 0.25 µg/mL (≈ 0.497 µM) | Broth MIC +50% Sheep serum [1]: 0.25 µg/mL | Broth MIC Normal MH broth [1]: <0.1 µg/mL | MIC MRSA 33 (MRSA 33; agar incorporation): <0.1 µg/mL | MIC50 (G +ve bacteria; G +ve, Number 49): 0.5 µg/mL (≈ 0.993 µM) | MIC90 (G +ve bacteria; G +ve, Number 49): 2 µg/mL (≈ 3.97 µM) | Geometric Mean of in vitro activity (MIC) (G +ve bacteria; Gram + ve): 0.31 µg/mL | MIC (MRSA 562 [2]; MRSA 562, Table 5): <0.1 µg/mL | MIC MRSA 562 (MRSA 562 [2]; agar incorporation, Table 1): <0.1 µg/mL | ED50 (mg/kg body weight) PO (MRSA 562 [3]; PO): >25 mg/kg body weight | MIC S. pyogenes 19615 (Strep. pyog. ATCC 19615; agar incorporation): 0.5 µg/mL (≈ 0.993 µM) | MIC S. pneum 6303 (Strep. pne. ATCC 6303; agar incorporation): 2 µg/mL (≈ 3.97 µM) | MIC MRSA 15187 (MRSA 15187; agar incorporation): <0.1 µg/mL | MIC VRE 6A (VRE 6A (Ent. faecium 6A); agar incorporation): <0.1 µg/mL | MIC E. faecalis 29212 (Ent. faecalis ATCC 29212; agar incorporation): 0.25 µg/mL (≈ 0.497 µM) | Agar MIC [4]: <0.1 µg/mL | Geometric Mean of in vitro activity (MIC) (S. aureus; S. aureus): 0.11 µg/mL | MIC50 (S. aureus; S. aureus, Number 8): 0.064 µg/mL (≈ 0.127 µM) | MIC90 (S. aureus; S. aureus, Number 8): 0.25 µg/mL (≈ 0.497 µM) | MIC S. pneum AB 34 (S. pneum AB 34; agar incorporation): 2 µg/mL (≈ 3.97 µM) | Geometric Mean of in vitro activity (MIC) (E. faecalis; E. faecalis): 0.11 µg/mL | MIC50 (E. faecalis; E. faecalis, Number 7): 0.064 µg/mL (≈ 0.127 µM) | MIC90 (E. faecalis; E. faecalis, Number 7): 0.25 µg/mL (≈ 0.497 µM)

CN[C@H](CC(C)C)C(=O)N[C@H]1C(=O)N[C@@H](CC(N)=O)C(=O)N[C@H]2C(=O)N[C@H]3C(=O)N[C@H](C(=O)N[C@H](C(=O)O)c4cc(O)cc(O)c4-c4cc3ccc4O)[C@H](O)c3ccc(c(Cl)c3)Oc3cc2cc(c3O[C@@H]2O[C@H](CO)[C@@H](O)[C@H](O)[C@H]2O[C@H]2C[C@](C)(N)[C@H](O)[C@H](C)O2)Oc2ccc(cc2Cl)[C@H]1O [Vancomycin]
MIC ([5]; Prevotella melaninogenica, read-out: MIC Prevotella melaninogenica): > 16 µg/mL | MIC (Fusobacterium necrogenes; Fusobacterium necrogenes, read-out: MIC Fusobacterium necrogenes): > 16 µg/mL | MIC50 (S. pneumoniae; Streptococcus pneumoniae): 0.5 µg/mL (≈ 0.345 µM) | MIC90 (S. pneumoniae; Streptococcus pneumoniae): 0.5 µg/mL (≈ 0.345 µM) | MIC (S. pneumoniae; Streptococcus pneumoniae, read-out: Geometric Mean of in vitro activity (MIC)): 0.39 µg/mL (≈ 0.269 µM) | MIC ([6]; Porphyromonas asaccharolytica, read-out: MIC Porphyromonas asaccharolytica): 2 µg/mL (≈ 1.38 µM) | MIC (Eubacterium leutum; Eubacterium, read-out: MIC Eubacterium leutum): 1 µg/mL (≈ 0.69 µM) | MIC (Clostridium perfringens; Clostridium perfringens, read-out: MIC Clostridium perfringens): 0.5 µg/mL (≈ 0.345 µM) | Broth MIC +50% Sheep serum [1]: 1 µg/mL | Broth MIC Normal MH broth [1]: 1 µg/mL | MIC (MRSA 33; Staphylococcus aureus, MRSA, read-out: MIC MRSA 33): 0.5 µg/mL (≈ 0.345 µM) | MIC (Fusobacterium nucleatum): > 16 µg/mL | MIC50 (G +ve bacteria): 0.5 µg/mL (≈ 0.345 µM) | MIC90 (G +ve bacteria): 16 µg/mL (≈ 11 µM) | MIC ([7]; Parvimonas micra, read-out: MIC Peptostreptococcus micros): 1 µg/mL (≈ 0.69 µM) | MIC (MRSA 562 [2]; Staphylococcus aureus, MRSA): 0.5 µg/mL (≈ 0.345 µM) | MIC (MRSA 562 [2]; Staphylococcus aureus, MRSA, read-out: MIC MRSA 562): 0.5 µg/mL (≈ 0.345 µM) | ED50 (mg/kg body weight) (MRSA 562 [3]; IV): 8.84 (IV) mg/kg body weight | MIC (Clostridium camis; Clostridium, read-out: MIC Clostridium camis): 2 µg/mL (≈ 1.38 µM) | MIC (Fusobacterium varium; Fusobacterium varium, read-out: MIC Fusobacterium varium): > 16 µg/mL | MIC ([8]; Anaerococcus prevotii, read-out: MIC Peptostreptococcus prevotii): 0.125 µg/mL (≈ 0.0863 µM) | MIC ([9]; Peptostreptococcus, read-out: MIC Peptostreptococcus magnum, single isolates, anaerobic agar dilution): 0.5 µg/mL (≈ 0.345 µM) | MIC Peptostreptococcus magnum [9]: 0.25 µg/mL (≈ 0.173 µM) | MIC (Strep. pyog. ATCC 19615; Streptococcus pyogenes, ATCC19615, read-out: MIC S. pyogenes 19615): 0.5 µg/mL (≈ 0.345 µM) | MIC (Strep. pne. ATCC 6303; Streptococcus pneumoniae, ATCC6303, read-out: MIC S. pneum 6303): 0.5 µg/mL (≈ 0.345 µM) | MIC (MRSA 15187; Staphylococcus aureus, MRSA, read-out: MIC MRSA 15187): 0.5 µg/mL (≈ 0.345 µM) | MIC (VRE 6A (Ent. faecium 6A); Enterococcus, VRE, read-out: MIC VRE 6A): > 16 µg/mL | MIC (Prevotella intermedia; Prevotella intermedia, read-out: MIC Prevotella intermedia): > 16 µg/mL | MIC (Ent. faecalis ATCC 29212; Enterococcus faecalis, ATCC29212, read-out: MIC E. faecalis 29212): 4 µg/mL (≈ 2.76 µM) | MIC (Clostridium difficile; Clostridioides difficile, read-out: MIC Clostridium difficile, single isolates, anaerobic agar dilution): 2 µg/mL (≈ 1.38 µM) | MIC Clostridium difficile (Clostridium difficile): 4 µg/mL (≈ 2.76 µM) | MIC (Fusobacterium montiferum; Fusobacterium, read-out: MIC Fusobacterium montiferum): > 16 µg/mL | MIC (Porphyromonas gingivalis; Porphyromonas gingivalis, read-out: MIC Porphyromonas gingivalis): 8 µg/mL (≈ 5.52 µM) | MIC (Bacteroides fragilis; Bacteroides fragilis, read-out: MIC Bacteroides fragilis): > 16 µg/mL | Agar MIC [4]: 1 µg/mL | MIC ([10]; Anaerococcus tetradius, read-out: MIC Peptostreptococcus tetradius): 1 µg/mL (≈ 0.69 µM) | MIC50 (S. aureus; Staphylococcus aureus): 1 µg/mL (≈ 0.69 µM) | MIC90 (S. aureus; Staphylococcus aureus): 1 µg/mL (≈ 0.69 µM) | MIC (MRSE 879; Staphylococcus epidermidis, MRSE, read-out: broth MIC): 1 µg/mL (≈ 0.69 µM) | MIC (Prevotella bivia; Prevotella bivia, read-out: MIC Prevotella bivia): > 16 µg/mL | MIC (S. pneum AB 34; Streptococcus pneumoniae, AB34, read-out: MIC S. pneum AB 34): 0.25 µg/mL (≈ 0.173 µM) | MIC50 (E. faecalis; Enterococcus faecalis): 16 µg/mL (≈ 11 µM) | MIC90 (E. faecalis; Enterococcus faecalis): 16 µg/mL (≈ 11 µM) | MIC50 (anaerobic bacteria; 48 h): 32 µg/mL (≈ 22.1 µM) | MIC90 (anaerobic bacteria; 48 h): 32 µg/mL (≈ 22.1 µM) | Geometric Mean (anaerobic bacteria; anaerobes): 9.306 µg/mL | MIC Range (anaerobic bacteria; anaerobes): 0.5 to 32 µg/mL | MIC (P. acnes; Cutibacterium acnes, read-out: MIC P. acnes, single isolates, anaerobic agar dilution): 0.5 µg/mL (≈ 0.345 µM) | MIC P. acnes (P. acnes): 1 µg/mL (≈ 0.69 µM) | MIC ([11]; read-out: MIC Prevotella (Bacteroides) disiens): > 16 µg/mL | concentration which would kill adherent bacteria [12]: 8 µg/mL

Synercid
MIC Prevotella melaninogenica [5, 13]: 1 µg/mL and 2 µg/mL | MIC Fusobacterium necrogenes (Fusobacterium necrogenes; [14]): 0.25 µg/mL | MIC Porphyromonas asaccharolytica [6, 14]: <=.125 μg/ml | MIC Eubacterium leutum (Eubacterium leutum; [15]): 0.25 µg/mL | MIC Clostridium perfringens (Clostridium perfringens; [15]): 0.5 µg/mL | MIC Peptostreptococcus micros [7, 13]: 0.5 µg/mL and 1 µg/mL | MIC Clostridium camis (Clostridium camis; [15]): 0.5 µg/mL | MIC Fusobacterium varium (Fusobacterium varium; [15]): >8 µg/mL | MIC Peptostreptococcus prevotii [8, 15]: 0.25 µg/mL | MIC Peptostreptococcus magnum [9]: 0.25 µg/mL | MIC Prevotella intermedia (Prevotella intermedia; [15]): 0.25 µg/mL | MIC Clostridium difficile (Clostridium difficile): 0.5 µg/mL | MIC Fusobacterium montiferum (Fusobacterium montiferum; [13]): 8 µg/mL and >8 µg/mL and 4 µg/mL | MIC Porphyromonas gingivalis (Porphyromonas gingivalis; [14]): 0.25 µg/mL | MIC Bacteroides fragilis (Bacteroides fragilis; [13]): 8 µg/mL and >8 µg/mL | MIC Peptostreptococcus tetradius [10, 15]: 1 µg/mL | broth MIC (MRSE 879; MRSE 879): 0.5 µg/mL | MIC Prevotella bivia (Prevotella bivia; [14]): 2 µg/mL | Geometric Mean (anaerobic bacteria; anaerobes): 1.614 µg/mL | MIC Range (anaerobic bacteria; anaerobes): 0.062 to 16 µg/mL | MIC50 (anaerobic bacteria; [16]): 1 µg/mL | MIC90 (anaerobic bacteria; [16]): 16 µg/mL | MIC P. acnes (P. acnes): <=.125 μg/ml | MIC Prevotella (Bacteroides) disiens [11, 13]: >8 µg/mL and 8 µg/mL | concentration which would kill adherent bacteria [12]: 2 µg/mL

Reference: patent publication US20040254162A1, “Oxazolidinone derivatives as antimicrobials” (priority 2001, published 2004)
